{"source": "paper PMC7719162", "about": "“Positioning of an unprecedented spiro[5.5]undeca ring system into kinase inhibitor space” (Scientific Reports, 2020)", "key": {"GSK3β": {"target": "GSK3β (Homo sapiens, UniProt P49841)", "sequence (P49841 whole entry)": "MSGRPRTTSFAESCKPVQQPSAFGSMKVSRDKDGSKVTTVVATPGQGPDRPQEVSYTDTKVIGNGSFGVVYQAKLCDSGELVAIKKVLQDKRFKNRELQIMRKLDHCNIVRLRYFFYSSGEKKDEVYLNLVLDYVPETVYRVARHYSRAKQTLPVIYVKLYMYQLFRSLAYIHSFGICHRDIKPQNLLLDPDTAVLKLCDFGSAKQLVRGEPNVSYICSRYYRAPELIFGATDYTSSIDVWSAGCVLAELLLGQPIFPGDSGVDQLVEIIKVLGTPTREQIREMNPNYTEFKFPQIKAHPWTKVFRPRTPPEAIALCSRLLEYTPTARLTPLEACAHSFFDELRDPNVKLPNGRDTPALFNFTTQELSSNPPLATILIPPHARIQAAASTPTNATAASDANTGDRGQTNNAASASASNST", "assay": "GSK3β radiolabelled kinase assay (% residual activity, IC50, ATP competition)", "type": "biochemical", "conditions": "at 10 μM compound"}, "[1]": {"system": "NO production in LPS-activated BV-2 cells", "assay": "NO production assay (Griess) in LPS-activated BV-2 cells", "type": "cell-based, murine", "conditions": "read-out: NO Inhibition IC50", "description": "(§1) 3-(4,5-dimethylthiazol-2-yl)-2,5-diphenyl-tetrazolium bromide (MTT) assay was performed to evaluate the cytotoxicity of the samples to the microglia. BV2 cells at the density of 4 × 10^4 cells /well were seeded in the 96 well plate and incubated for 24 h. Seeded cells were pre-treated with different concentration of the samples, and LPS (100 ng/ml) activation was performed after 30 min of compound treatment. Treated plate were incubated for 24 h in the incubator and nitric oxide assay and cell viability assay was performed. Treated cell’s conditioned medium was used to evaluate the NO assay, and the attached cells were used to evaluate the cell viability assay. 50 µL of conditioned medium (CM) from treated cells were transferred to a new 96 well plate for NO assay. This CM was mixed with the equal volume of the mixture of Gries reagent ((1% sulfanilamide and 0.1% N-1-napthylethylenediamine dihydrochloride). NaNO2 was used as standard and the colorimetric change were evidenced by measuring its OD at 540 nm in a microplate reader. The cells in the plate were incubated for 1 h with MTT solution making it the final concentration of […]. Blue stained cells were incubated with 200 ul of DMSO and the solution get changed to purple/formazan color and it was observed by measuring the absorbance at 570 nm in a microplate reader.NG-mono-methyl-L-arginine (L-NMMA), a well-known nitric oxide synthase (NOS) inhibitor, was used as a positive control."}, "BV-2 cells": {"system": "BV-2 cells", "assay": "MTT cell viability assay", "type": "cell-based, murine", "conditions": "5 μM compound, % of LPS, mean ± SD", "description": "as §1"}, "iNOS": {"system": "iNOS", "assay": "Western blot of iNOS in LPS-induced BV-2 cells", "type": "cell-based, murine", "conditions": "0.01 to 1 uM, LPS-induced BV-2 cells", "description": "(§2) Western blot analysis was performed to see the protein expression of the iNOS and COX-2 in the BV2 cells. BV2 cells were seeded in a 6 well plate at the density of 6 × 10^5 cells/well overnight and cells were treated as mentioned earlier in the cell treatment section and this time treatment was performed for 6 h only. After 6 h, cells were harvested and lysed with lysis buffer containing (RIPA, protease inhibitor & phosphatase inhibitor), protein estimation was performed using biorad assay and the 30 µg of total protein was separated by 8% SDS-PAGE gel electrophoresis, transferred to nitrocellulose membranes, and incubated with primary antibodies against tubulin, iNOS, COX-2, and α-tubulin. […] membranes were incubated with horseradish peroxidase-conjugated secondary antibodies, and protein bands were visualized using ECL Western Blotting Detection Reagents (Amersham Pharmacia Biotech). Quantitative analysis of the protein bands was quantified using Image Master 2D Elite software (version 3.1, Amersham Pharmacia Biotech)."}, "COX-2": {"system": "COX-2", "assay": "Western blot of COX-2 in LPS-induced BV-2 cells", "type": "cell-based, murine", "conditions": "0.01 to 1 uM", "description": "as §2"}, "MTT cell viability assay": {"assay": "MTT cell viability assay", "type": "cell-based, murine", "conditions": "mouse, BV-2 microglia cells (LPS-activated), mean ± SD", "description": "as §1"}, "PI3KC2A": {"target": "T1, PI3KC2A (Homo sapiens, UniProt O00443)", "T1 construct": "purchased Reaction Biology Corp", "T1 sequence (O00443 whole entry)": "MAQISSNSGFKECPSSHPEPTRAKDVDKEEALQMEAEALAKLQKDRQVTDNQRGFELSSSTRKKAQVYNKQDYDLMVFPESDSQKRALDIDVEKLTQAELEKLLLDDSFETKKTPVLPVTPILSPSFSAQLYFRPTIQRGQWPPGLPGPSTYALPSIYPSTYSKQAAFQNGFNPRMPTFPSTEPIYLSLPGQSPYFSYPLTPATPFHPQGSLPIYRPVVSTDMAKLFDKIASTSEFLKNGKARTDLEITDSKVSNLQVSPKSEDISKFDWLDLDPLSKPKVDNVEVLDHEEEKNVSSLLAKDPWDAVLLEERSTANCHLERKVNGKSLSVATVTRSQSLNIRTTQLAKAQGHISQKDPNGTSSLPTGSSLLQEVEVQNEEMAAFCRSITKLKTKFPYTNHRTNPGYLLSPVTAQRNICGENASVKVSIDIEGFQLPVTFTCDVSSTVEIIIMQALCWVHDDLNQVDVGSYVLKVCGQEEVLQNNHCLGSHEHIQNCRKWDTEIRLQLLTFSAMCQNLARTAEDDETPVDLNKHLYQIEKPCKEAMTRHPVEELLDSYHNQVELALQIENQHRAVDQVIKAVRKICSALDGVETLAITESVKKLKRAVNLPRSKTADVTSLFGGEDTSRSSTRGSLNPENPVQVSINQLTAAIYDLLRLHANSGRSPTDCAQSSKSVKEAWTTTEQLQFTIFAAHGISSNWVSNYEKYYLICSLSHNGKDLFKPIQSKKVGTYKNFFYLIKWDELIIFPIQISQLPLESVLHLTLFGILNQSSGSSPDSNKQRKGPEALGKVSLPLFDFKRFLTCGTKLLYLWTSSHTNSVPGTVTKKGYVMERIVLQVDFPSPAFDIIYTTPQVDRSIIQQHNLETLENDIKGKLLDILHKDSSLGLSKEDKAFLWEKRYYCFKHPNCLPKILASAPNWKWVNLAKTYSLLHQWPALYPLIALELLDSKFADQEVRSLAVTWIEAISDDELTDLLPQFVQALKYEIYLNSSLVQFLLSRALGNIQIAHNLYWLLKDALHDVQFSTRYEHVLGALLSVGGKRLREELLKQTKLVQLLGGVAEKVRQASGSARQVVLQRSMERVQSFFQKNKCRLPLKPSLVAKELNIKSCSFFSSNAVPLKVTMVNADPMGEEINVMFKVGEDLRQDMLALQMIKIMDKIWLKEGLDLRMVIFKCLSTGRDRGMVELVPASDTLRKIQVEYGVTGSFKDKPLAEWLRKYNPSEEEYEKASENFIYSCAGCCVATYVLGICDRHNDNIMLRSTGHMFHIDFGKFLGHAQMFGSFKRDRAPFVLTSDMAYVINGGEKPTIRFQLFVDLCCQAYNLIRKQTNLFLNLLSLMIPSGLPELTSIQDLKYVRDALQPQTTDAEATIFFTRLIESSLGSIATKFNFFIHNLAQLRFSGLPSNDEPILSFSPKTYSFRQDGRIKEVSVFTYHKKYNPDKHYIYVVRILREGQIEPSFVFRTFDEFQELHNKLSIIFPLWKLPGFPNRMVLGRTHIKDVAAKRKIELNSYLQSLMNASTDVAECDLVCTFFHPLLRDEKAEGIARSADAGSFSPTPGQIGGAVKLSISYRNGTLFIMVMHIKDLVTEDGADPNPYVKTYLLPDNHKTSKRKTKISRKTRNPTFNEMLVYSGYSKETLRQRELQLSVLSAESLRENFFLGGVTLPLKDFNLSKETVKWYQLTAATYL", "assay": "Kinase panel assay (lipid kinase)", "type": "biochemical", "conditions": "read-out: IC50 (M) of Control (+)", "description": "(§3) Every inhibitory activity of tested compounds was measured by radiolabelled method of Reaction Biology Corp). The radiolabelled ATP ([γ-^33P] ATP) replaced a substrate with ^33P-phosphorylated substrate so that the activity of a kinase was measured from the radiolabelled phosphorylated substrate. Kinase panel assay was tested at 30 μM testing compounds with an ATP concentration of 10 μM and a substrate concentration of 10 μM. % Residual activity against GSK3β was measured at 10 uM compounds 1 and 2. […] Curve fits of control compounds were performed where the enzyme activities at the highest concentration of compounds were less than 65%. The concentration of DMSO was controlled and raw data, % kinase activity was calculated relative to DMSO controls."}, "PIP5K1C": {"target": "T2, PIP5K1C (Homo sapiens, UniProt O60331)", "T2 construct": "purchased Reaction Biology Corp", "T2 sequence (O60331 whole entry)": "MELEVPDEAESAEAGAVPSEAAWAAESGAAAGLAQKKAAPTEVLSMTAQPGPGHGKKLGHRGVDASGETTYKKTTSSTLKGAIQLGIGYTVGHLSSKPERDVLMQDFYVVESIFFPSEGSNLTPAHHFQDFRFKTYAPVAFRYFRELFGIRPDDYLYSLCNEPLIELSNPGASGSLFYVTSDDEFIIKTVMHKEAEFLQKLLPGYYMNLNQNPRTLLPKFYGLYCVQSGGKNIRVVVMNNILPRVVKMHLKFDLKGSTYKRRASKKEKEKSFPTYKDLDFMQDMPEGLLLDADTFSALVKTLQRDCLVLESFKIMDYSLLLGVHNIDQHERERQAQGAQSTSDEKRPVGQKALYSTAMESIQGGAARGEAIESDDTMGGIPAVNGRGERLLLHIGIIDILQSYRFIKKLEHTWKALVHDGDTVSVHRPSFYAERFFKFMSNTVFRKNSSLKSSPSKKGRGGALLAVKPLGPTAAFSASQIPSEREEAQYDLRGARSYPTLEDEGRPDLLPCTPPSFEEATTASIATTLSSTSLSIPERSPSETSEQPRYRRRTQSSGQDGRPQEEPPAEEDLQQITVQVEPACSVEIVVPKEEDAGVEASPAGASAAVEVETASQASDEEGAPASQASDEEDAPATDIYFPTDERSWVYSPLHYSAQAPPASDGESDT", "assay": "Kinase panel assay (lipid kinase)", "type": "biochemical", "conditions": "control PIK-93", "description": "as §3"}, "PI3KC3": {"target": "T3, PI3KC3 (Homo sapiens, UniProt Q8NEB9)", "T3 construct": "purchased Reaction Biology Corp", "T3 sequence (Q8NEB9 whole entry)": "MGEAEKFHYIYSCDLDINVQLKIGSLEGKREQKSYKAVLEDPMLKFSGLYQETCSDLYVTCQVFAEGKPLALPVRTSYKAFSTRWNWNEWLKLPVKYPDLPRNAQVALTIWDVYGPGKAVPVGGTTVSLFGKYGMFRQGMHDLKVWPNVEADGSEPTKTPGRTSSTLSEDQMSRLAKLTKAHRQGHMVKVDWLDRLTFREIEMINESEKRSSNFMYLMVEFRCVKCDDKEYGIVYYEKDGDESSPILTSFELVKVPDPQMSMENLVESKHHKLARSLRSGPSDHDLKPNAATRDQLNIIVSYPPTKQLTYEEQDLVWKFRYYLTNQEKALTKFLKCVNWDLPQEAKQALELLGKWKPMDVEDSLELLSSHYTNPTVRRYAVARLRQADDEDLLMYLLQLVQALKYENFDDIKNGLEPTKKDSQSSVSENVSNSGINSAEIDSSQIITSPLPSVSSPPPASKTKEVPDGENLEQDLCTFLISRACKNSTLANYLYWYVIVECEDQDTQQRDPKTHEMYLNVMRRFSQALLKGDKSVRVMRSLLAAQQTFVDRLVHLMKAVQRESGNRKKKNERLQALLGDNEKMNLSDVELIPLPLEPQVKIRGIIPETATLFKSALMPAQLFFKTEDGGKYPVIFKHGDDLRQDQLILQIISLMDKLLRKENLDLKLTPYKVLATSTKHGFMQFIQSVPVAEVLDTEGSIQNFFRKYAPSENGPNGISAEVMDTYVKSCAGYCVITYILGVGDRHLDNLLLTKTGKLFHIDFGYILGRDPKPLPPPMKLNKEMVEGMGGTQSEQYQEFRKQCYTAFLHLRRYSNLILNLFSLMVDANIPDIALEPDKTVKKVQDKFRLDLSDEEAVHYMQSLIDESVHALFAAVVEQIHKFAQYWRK", "assay": "Kinase panel assay (lipid kinase)", "type": "biochemical", "conditions": "control PIK-93", "description": "as §3"}, "PI4K2A": {"target": "T4, PI4K2A (Homo sapiens, UniProt Q9BTU6)", "T4 construct": "purchased Reaction Biology Corp", "T4 sequence (Q9BTU6 whole entry)": "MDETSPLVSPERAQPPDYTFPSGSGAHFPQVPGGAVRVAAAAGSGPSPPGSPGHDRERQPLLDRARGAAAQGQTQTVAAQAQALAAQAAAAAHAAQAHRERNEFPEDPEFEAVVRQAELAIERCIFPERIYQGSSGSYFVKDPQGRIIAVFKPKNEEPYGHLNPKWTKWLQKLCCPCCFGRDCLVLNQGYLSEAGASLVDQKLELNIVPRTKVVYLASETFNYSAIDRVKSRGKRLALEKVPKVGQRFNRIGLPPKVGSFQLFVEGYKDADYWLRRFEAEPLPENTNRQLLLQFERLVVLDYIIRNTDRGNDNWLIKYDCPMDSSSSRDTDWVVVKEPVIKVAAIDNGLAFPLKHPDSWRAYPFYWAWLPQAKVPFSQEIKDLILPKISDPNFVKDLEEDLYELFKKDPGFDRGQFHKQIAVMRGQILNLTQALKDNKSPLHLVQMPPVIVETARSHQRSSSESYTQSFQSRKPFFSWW", "assay": "Kinase panel assay (lipid kinase)", "type": "biochemical", "conditions": "control PIK-93", "description": "as §3"}, "PIP5K1A": {"target": "T5, PIP5K1A (Homo sapiens, UniProt Q99755)", "T5 construct": "purchased Reaction Biology Corp", "T5 sequence (Q99755 whole entry)": "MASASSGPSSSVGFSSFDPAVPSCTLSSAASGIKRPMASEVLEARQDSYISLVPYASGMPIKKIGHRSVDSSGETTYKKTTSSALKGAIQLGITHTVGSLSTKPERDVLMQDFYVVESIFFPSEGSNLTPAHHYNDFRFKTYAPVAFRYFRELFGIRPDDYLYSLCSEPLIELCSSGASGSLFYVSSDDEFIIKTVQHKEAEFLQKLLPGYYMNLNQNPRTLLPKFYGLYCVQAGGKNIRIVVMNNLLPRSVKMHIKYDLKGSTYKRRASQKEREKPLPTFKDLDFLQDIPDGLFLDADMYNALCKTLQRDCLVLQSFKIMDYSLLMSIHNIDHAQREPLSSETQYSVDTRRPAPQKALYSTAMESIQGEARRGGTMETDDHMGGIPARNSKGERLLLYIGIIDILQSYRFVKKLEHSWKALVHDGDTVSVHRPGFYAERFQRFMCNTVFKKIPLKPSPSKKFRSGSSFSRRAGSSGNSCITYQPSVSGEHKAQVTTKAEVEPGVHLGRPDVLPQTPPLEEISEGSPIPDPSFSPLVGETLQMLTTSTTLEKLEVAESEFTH", "assay": "Kinase panel assay (lipid kinase)", "type": "biochemical", "conditions": "control PIK-93", "description": "as §3"}}, "note": "Where two headings read alike, the source gives them in different places.", "data": [{"compound": "O=C1C=CC2(C=C1)OCC(Cc1ccccc1CS(=O)(=O)c1ccccc1)C(=O)N2c1ccccc1", "note": "(centres unmarked) [1b]", "values": [{"measurement": "% GSK3β Residual Activity", "setting": "GSK3β", "value": "91.0 ± 12.6", "unit": "%"}, {"measurement": "IC50", "setting": "[1]", "value": "980 ± 30", "unit": "nM"}, {"measurement": "Cell Viability (%)", "setting": "BV-2 cells", "value": "84 ± 3", "unit": "%"}]}, {"compound": "O=C1C=CC2(C=C1)OCC(Cc1cn(-c3ccccc3)nn1)C(=O)N2c1ccccc1", "note": "(centres unmarked) [2a, 5-Phenyl-3-((1-phenyl-1H-1,2,3-triazol-4-yl)methyl)-1-oxa-5-azaspiro[5.5]undeca-7,10-diene-4,9-dione]", "values": [{"measurement": "iNOS expression level", "setting": "iNOS", "value": "limited potency and efficacy"}, {"measurement": "remaining activity at 10 µM", "setting": "GSK3β", "value": "62.3 ± 2.3", "unit": "%"}, {"measurement": "COX-2 expression level", "setting": "COX-2", "value": "limited potency and efficacy"}, {"measurement": "IC50", "setting": "[1]; Mus musculus", "value": "670 ± 50", "unit": "nM"}, {"measurement": "viability at 24 h, 1 µM", "setting": "MTT cell viability assay; 1 μM compound", "value": "92.9 ± 0.24", "unit": "%"}, {"measurement": "viability at 24 h, 5 µM", "setting": "MTT cell viability assay; 5 μM compound, % of LPS", "value": "81 ± 3", "unit": "%"}]}, {"compound": "Oc1cccc(-c2nc(N3CCOCC3)c3oc4ncccc4c3n2)c1", "note": "[PI-103, reference compound]", "values": [{"measurement": "IC50", "setting": "PI3KC2A", "value": "4.8e-07", "unit": "M"}]}, {"compound": "CC(=O)Nc1nc(C)c(-c2ccc(Cl)c(S(=O)(=O)NCCO)c2)s1", "note": "[PIK-93, reference compound]", "values": [{"measurement": "IC50", "setting": "PIP5K1C", "value": 17500, "unit": "nM"}, {"measurement": "IC50", "setting": "PI3KC3", "value": 75.7, "unit": "nM"}, {"measurement": "IC50", "setting": "PI4K2A", "value": 18500, "unit": "nM"}, {"measurement": "IC50", "setting": "PIP5K1A", "value": 61800, "unit": "nM"}]}]}
